Experimental data published in BindingDB's records for doi:10.7270/Q2SN07C4 (Vanderbilt Screening Center for GPCRs, Ion Channels and …, 2009).

Biological target: T1, Muscarinic acetylcholine receptor M4 (Rattus norvegicus, UniProt P08485)
T1 sequence (P08485 whole entry): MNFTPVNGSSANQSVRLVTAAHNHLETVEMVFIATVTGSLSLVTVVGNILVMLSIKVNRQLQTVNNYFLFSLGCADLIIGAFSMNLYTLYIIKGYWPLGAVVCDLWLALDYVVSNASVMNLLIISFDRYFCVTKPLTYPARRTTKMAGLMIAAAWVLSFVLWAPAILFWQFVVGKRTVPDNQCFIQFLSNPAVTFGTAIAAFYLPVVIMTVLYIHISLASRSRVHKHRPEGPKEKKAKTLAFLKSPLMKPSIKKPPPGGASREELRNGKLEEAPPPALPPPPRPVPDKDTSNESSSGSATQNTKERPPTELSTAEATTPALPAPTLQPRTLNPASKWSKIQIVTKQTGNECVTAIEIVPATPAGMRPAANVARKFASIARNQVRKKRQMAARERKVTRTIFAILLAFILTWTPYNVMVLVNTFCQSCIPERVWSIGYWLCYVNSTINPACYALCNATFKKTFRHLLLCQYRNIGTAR
Experiment: rat M4 radioligand competition binding – biochemical, NMS competition, mechanism study for M4 PAM project, late-stage follow-up (AID 1939)

Question: Which EC50 does the source give for `Cc1cc(C)c2c(N)c(C(=O)NCc3ccc4c(c3)OCO4)sc2n1` [3-amino-4,6-dimethyl-N-piperonyl-thieno[2,3-b]pyridine-2-carboxamide] here?
Answer: < 1420 nM
